This passage reports IC50 results from patent US20220388964A1 (HiberCell, Inc., priority 2019, published 2022).

A word on the IC50: it is the concentration at which inhibition is half-maximal. A high value points to weaker potency.

The assay deals with GCN2 (Homo sapiens, UniProt Q9P2K8). Nature of the assay: TR-FRET biochemical assay for inhibition of GCN2 (Example 106, for Example 1-4BB). On the technique in general: TR-FRET usually uses a lanthanide donor and a delayed reading to cut background.
Chain of GCN2 (Q9P2K8 whole entry): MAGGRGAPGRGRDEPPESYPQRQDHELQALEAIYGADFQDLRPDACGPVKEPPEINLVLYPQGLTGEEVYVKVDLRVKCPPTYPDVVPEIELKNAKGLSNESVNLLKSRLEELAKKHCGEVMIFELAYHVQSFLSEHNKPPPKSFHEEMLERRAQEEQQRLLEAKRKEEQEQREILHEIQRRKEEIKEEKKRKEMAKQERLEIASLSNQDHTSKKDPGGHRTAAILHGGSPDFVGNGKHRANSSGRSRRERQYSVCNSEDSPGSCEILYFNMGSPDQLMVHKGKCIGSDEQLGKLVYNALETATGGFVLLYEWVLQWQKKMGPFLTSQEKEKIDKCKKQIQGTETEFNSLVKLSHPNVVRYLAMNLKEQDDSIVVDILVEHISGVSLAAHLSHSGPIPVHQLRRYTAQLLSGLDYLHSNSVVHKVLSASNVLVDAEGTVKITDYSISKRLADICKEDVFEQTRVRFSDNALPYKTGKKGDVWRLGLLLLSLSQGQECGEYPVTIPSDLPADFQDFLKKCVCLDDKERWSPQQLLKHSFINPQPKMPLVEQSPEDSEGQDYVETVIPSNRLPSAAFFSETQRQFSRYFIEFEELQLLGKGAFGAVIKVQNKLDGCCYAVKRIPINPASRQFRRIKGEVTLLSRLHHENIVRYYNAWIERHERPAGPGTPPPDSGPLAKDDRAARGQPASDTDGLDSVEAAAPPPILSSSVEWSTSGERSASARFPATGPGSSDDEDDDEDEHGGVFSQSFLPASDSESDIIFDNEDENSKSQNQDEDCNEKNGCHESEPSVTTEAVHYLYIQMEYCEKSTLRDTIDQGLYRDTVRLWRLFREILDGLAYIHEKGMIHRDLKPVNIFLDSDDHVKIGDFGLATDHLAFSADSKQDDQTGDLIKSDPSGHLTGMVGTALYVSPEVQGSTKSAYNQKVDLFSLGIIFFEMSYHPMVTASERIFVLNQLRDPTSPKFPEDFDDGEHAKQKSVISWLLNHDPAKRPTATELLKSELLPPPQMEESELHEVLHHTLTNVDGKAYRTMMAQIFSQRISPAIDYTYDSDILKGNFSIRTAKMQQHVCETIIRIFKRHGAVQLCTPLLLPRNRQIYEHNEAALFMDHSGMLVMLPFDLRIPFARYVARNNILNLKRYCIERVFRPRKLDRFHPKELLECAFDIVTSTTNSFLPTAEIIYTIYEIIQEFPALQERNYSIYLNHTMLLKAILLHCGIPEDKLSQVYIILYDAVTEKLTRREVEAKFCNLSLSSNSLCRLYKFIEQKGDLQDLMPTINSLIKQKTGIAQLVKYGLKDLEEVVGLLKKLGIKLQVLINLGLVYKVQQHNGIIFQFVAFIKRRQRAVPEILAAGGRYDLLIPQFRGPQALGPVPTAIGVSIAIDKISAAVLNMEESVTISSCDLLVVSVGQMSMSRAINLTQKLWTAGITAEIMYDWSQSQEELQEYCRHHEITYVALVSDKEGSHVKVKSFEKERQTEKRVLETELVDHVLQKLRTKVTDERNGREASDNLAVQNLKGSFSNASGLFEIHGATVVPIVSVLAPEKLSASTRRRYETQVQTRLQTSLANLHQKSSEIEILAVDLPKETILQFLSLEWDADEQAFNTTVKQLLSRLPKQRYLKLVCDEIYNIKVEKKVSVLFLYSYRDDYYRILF

Where the note is “Table 8”, `COc1ncc(Cl)cc1S(=O)(=O)Nc1ccc(F)c(-c2ccc3cn[nH]c3c2)c1F` [Example 2BY, 5-chloro-N-(2,4-difluoro-3-(1H-indazol-6-yl)-phenyl)-2-methoxypyridine-3-sulfonamide] registered an IC50 of 500 to 2500 nM.
Still for that read-out and setting: then `Cc1c(Cl)cccc1S(=O)(=O)Nc1ccc(F)c(-c2ccc3c(-c4ncc[nH]4)n[nH]c3c2F)c1F` [Example 2AY, 3-chloro-N-(2,4-difluoro-3-(7-fluoro-3-(1H-imidazol-2-yl)-1H-indazol-6-yl)phenyl)-2-methylbenzenesulfonamide], with < 500 nM.
Take `COc1ncc(F)cc1S(=O)(=O)Nc1ccc(F)c(-c2ccc3c(C(=O)Nc4cnoc4)n[nH]c3c2F)c1F` [Example 3BN, 6-(2,6-difluoro-3-((5-fluoro-2-methoxypyridine)-3-sulfonamido)phenyl)-7-fluoro-N-(isoxazol-4-yl)-1H-indazole-3-carboxamide]: the half-inhibitory concentration (IC50) (Table 9) was < 500 nM.
Same read-out and setting: then `COc1ncc(F)cc1S(=O)(=O)Nc1ccc(F)c(-c2ccc3c(-c4nnc(C)[nH]4)n[nH]c3c2F)c1F` [Example 3CK, N-(2,4-difluoro-3-(7-fluoro-3-(5-methyl-4H-1,2,4-triazol-3-yl)-1H-indazol-6-yl)phenyl)-5-fluoro-2-methoxypyridine-3-sulfonamide], with < 500 nM.
Take `COc1ncc(C#N)cc1S(=O)(=O)Nc1cc(F)cc(-c2ccc3c(C(=O)NCCCN(C)C)n[nH]c3c2F)c1F` [Example 3CE, 6-(3-((5-cyano-2-methoxy-pyridine)-3-sulfonamido)-2,5-difluorophenyl)-N-(3-(dimethylamino)propyl)-7-fluoro-1H-indazole-3-carboxamide]: the half-maximal inhibitory concentration (IC50) (Table 9) was > 10000 nM.
On to `COC(=O)c1ccc(Cl)cc1S(=O)(=O)Nc1ccc(F)c(-c2ccc3c(-c4ncc[nH]4)n[nH]c3c2F)c1F` [Example 2BC, methyl 4-chloro-2-(N-(2,4-difluoro-3-(7-fluoro-3-(1H-imidazol-2-yl)-1H-indazol-6-yl)phenyl)sulfamoyl)benzoate], for which the concentration for half-maximal inhibition (IC50) (Table 8) was < 500 nM.
With `COc1ncc(C#N)cc1S(=O)(=O)Nc1cc(F)cc(-c2ccc3c(-c4ncc[nH]4)n[nH]c3c2F)c1F` [Example 3BV, 5-cyano-N-(2,5-difluoro-3-(7-fluoro-3-(1H-imidazol-2-yl)-1H-indazol-6-yl)phenyl)-2-methoxypyridine-3-sulfonamide], where the note is “Table 9”, the IC50 is < 500 nM.
Turning to `COc1ncc(Cl)cc1S(=O)(=O)Nc1cccc(-c2ccc3c(-c4ncc[nH]4)n[nH]c3c2F)c1C#N` [Example 2AD, 5-chloro-N-(2-cyano-3-(7-fluoro-3-(1H-imidazol-2-yl)-1H-indazol-6-yl)phenyl)-2-methoxypyridine-3-sulfonamide], the IC50 (Table 8) is < 500 nM.
For the molecule `Cc1ccc(S(=O)(=O)Nc2ccc(F)c(-c3ccc4c(C(=O)Nc5cn[nH]c5)n[nH]c4c3F)c2F)c(C)n1` [Example 3DI, 6-(3-((2,6-dimethylpyridine)-3-sulfonamido)-2,6-difluoro-phenyl)-7-fluoro-N-(1H-pyrazol-4-yl)-1H-indazole-3-carboxamide], the half-maximal inhibitory concentration (IC50) (Table 9) was < 500 nM.
Same read-out and setting: then `COc1ncc(F)cc1S(=O)(=O)Nc1cccc(-c2ccc3c(C(=O)NCCCO)n[nH]c3c2F)c1F` [Example 26, 7-Fluoro-6-(2-fluoro-3-((5-fluoro-2-methoxypyridine)-3-sulfonamido)phenyl)-N-(3-hydroxypropyl)-1H-indazole-3-carboxamide], with < 500 nM; and `Cc1ccc(F)cc1S(=O)(=O)Nc1ccc(F)c(-c2ncc3c(-c4ncc[nH]4)n[nH]c3c2F)c1F` [Example 38, N-[2,4-difluoro-3-[7-fluoro-3-(1H-imidazol-2-yl)-1H-pyrazolo[4,3-c]pyridin-6-yl]phenyl]-5-fluoro-2-methyl-benzenesulfonamide], with < 500 nM.
As to `COc1ncccc1S(=O)(=O)Nc1ncc(F)c(-c2ccc3c(-c4ncc[nH]4)n[nH]c3c2F)c1F` [Example 2CL, N-(3,5-difluoro-4-(7-fluoro-3-(1H-imidazol-2-yl)-1H-indazol-6-yl)pyridin-2-yl)-2-methoxypyridine-3-sulfonamide], the 50% inhibitory concentration (IC50) (Table 8) is < 500 nM.
In the case of `O=S(=O)(Nc1ccc(F)c(-c2ccc3c(-c4ncc[nH]4)n[nH]c3c2)c1F)c1cc(Cl)ccc1Cl` [Example 2AV, N-(3-(3-(1H-imidazol-2-yl)-1H-indazol-6-yl)-2,4-difluorophenyl)-2,5-dichlorobenzenesulfonamide], for the setting “Table 8”, the IC50 was < 500 nM.
On the same count and under the same terms, then `O=S(=O)(Nc1ccc(F)c(-c2ccc3cn[nH]c3c2)c1F)c1cc(Cl)ccc1Cl` [Example 2BX, 2,5-dichloro-N-(2,4-difluoro-3-(1H-indazol-6-yl)phenyl)benzenesulfonamide], with 500 to 2500 nM.
Take `COc1ncc(C#N)cc1S(=O)(=O)Nc1ccc(F)c(-c2ccc3c(C(=O)NCCCO)n[nH]c3c2F)c1F` [Example 4C]: the IC50 (Table 9) was in the range of 500 to 2500 nM.
Same read-out and setting: then `Cc1ncc(F)cc1S(=O)(=O)Nc1cc(F)cc(-c2ccc3c(C(=O)NCCCN(C)C)n[nH]c3c2F)c1F` [Example 3CD, 6-(2,5-difluoro-3-((5-fluoro-2-methylpyridine)-3-sulfonamido)phenyl)-N-(3-(dimethylamino)propyl)-7-fluoro-1H-indazole-3-carboxamide], with < 500 nM.
Regarding `O=S(=O)(Nc1ccc(F)c(-c2ccc3c(-c4ncc[nH]4)n[nH]c3c2F)c1F)c1cncc(Cl)c1` [Example 2CE], the IC50 (Table 8) is < 500 nM.
Molecule `O=S(=O)(Nc1ccc(F)c(-c2ccc3c(-c4ncc[nH]4)n[nH]c3c2F)c1F)c1cccnc1` [Example 2CO, N-(2,4-difluoro-3-(7-fluoro-3-(1H-imidazol-2-yl)-1H-indazol-6-yl)phenyl)pyridine-3-sulfonamide] came in with a half-inhibitory concentration (IC50) (Table 8) of 2500 to 10000 nM.
As to `COc1ncc(Cl)cc1S(=O)(=O)Nc1ccc(F)c(-c2ccc3c(C(=O)Nc4cnoc4)n[nH]c3c2F)c1F` [Example 3CV, 6-(3-((5-chloro-2-methoxy-pyridine)-3-sulfonamido)-2,6-difluorophenyl)-7-fluoro-N-(isoxazol-4-yl)-1H-indazole-3-carboxamide], the IC50 (Table 9) is < 500 nM.
Take `O=S(=O)(Nc1ccc(F)c(-c2ccc3c(-c4ncc[nH]4)n[nH]c3c2F)c1F)c1ccccc1Cl` [Example 2BP, 2-chloro-N-(2,4-difluoro-3-(7-fluoro-3-(1H-imidazol-2-yl)-1H-indazol-6-yl)phenyl)-benzenesulfonamide]: the concentration for half-maximal inhibition (IC50) (Table 8) was < 500 nM.
`Cc1ccc(S(=O)(=O)Nc2ccc(F)c(-c3ccc4c(C(=O)NCCCO)n[nH]c4c3F)c2F)c(C)n1` [Example 3CP, 6-(3-((2,6-dimethylpyridine)-3-sulfonamido)-2,6-difluorophenyl)-7-fluoro-N-(3-hydroxypropyl)-1H-indazole-3-carboxamide] displayed an IC50 (Table 9) of 500 to 2500 nM.
For the molecule `O=C(NCCCO)c1n[nH]c2c(F)c(-c3c(F)ccc(NS(=O)(=O)c4cc(F)cc5c4CCC5O)c3F)ccc12` (centres unmarked) [Example 4T], the half-maximal inhibitory concentration (IC50) (Table 9) was < 500 nM.
In the case of `COc1ncc(Cl)cc1S(=O)(=O)Nc1ccc(F)c(-c2ccc3c(C(=O)NCCCN(C)C)n[nH]c3c2F)c1F` [Example 2CG, 6-(3-((5-chloro-2-methoxy-pyridine)-3-sulfonamido)-2,6-difluorophenyl)-N-(3-(di-methylamino)propyl)-7-fluoro-1H-indazole-3-carboxamide], for the setting “Table 8”, the IC50 was < 500 nM.
Regarding `Cc1ncc(F)cc1S(=O)(=O)Nc1ccc(F)c(-c2ccc3c(C(=O)Nc4cnoc4)n[nH]c3c2F)c1F` [Example 3DQ, 6-(2,6-difluoro-3-((5-fluoro-2-methylpyridine)-3-sulfonamido)phenyl)-7-fluoro-N-(isoxazol-4-yl)-1H-indazole-3-carboxamide], where the note is “Table 9”, the IC50 was < 500 nM.
With `COc1ncc(F)cc1S(=O)(=O)Nc1ccc(F)c(-c2ccc3c(-c4nc(Cl)c[nH]4)n[nH]c3c2F)c1F` [Example 17, N-(3-(3-(4-Chloro-1H-imidazol-2-yl)-7-fluoro-1H-indazol-6-yl)-2,4-difluorophenyl)-5-fluoro-2-methoxypyridine-3-sulfonamide], the IC50 (Table 9) was < 500 nM.
In turn, `O=S(=O)(Nc1ccc(F)c(-c2ccc3c(-c4ncc[nH]4)n[nH]c3c2F)c1F)c1cccc(Cl)c1` [Example 2CN, 3-chloro-N-(2,4-difluoro-3-(7-fluoro-3-(1H-imidazol-2-yl)-1H-indazol-6-yl)phenyl)ben-zenesulfonamide] came in with an IC50 (Table 8) of 500 to 2500 nM.
As to `COc1ncccc1S(=O)(=O)Nc1ccc(F)c(-c2ccc3c(C(N)=O)n[nH]c3c2F)c1F` [Example 3BJ, 6-(2,6-difluoro-3-((2-methoxypyridine)-3-sulfonamido)phenyl)-7-fluoro-1H-indazole-3-carboxamide], the half-inhibitory concentration (IC50) (Table 9) fell in the range of 500 to 2500 nM.
`O=S(=O)(Nc1ccc(F)c(-c2ccc3c(-c4ncc[nH]4)n[nH]c3c2F)c1F)c1cc(Cl)ccc1F` [Example 2BD, 5-chloro-N-(2,4-difluoro-3-(7-fluoro-3-(1H-imidazol-2-yl)-1H-indazol-6-yl)phenyl)-2-fluorobenzenesulfonamide]: for the setting “Table 8”, the IC50 is < 500 nM.
The molecule `Cc1ccc(S(=O)(=O)Nc2ccc(F)c(-c3ccc4c(C(=O)NCCCN(C)C)n[nH]c4c3F)c2F)c(C)n1` [Example 3CO, N-(3-(dimethylamino)propyl)-6-(3-((2,6-dimethylpyridine)-3-sulfonamido)-2,6-difluorophenyl)-7-fluoro-1H-indazole-3-carboxamide] gave an IC50 (Table 9) of 500 to 2500 nM.
`COc1ncc(Cl)cc1S(=O)(=O)Nc1ccc(F)c(-c2ccc3c(N)n[nH]c3c2F)c1F` [Example 7, N-(3-(3-Amino-7-fluoro-1H-indazol-6-yl)-2,4-difluorophenyl)-5-chloro-2-methoxypyridine-3-sulfonamide] showed an IC50 (Table 8) of 500 to 2500 nM.
Still for that read-out and setting: as for `Cc1ncccc1S(=O)(=O)Nc1ccc(F)c(-c2ccc3c(-c4ncc[nH]4)n[nH]c3c2F)c1F` [Example 2, N-(2,4-difluoro-3-(7-fluoro-3-(1H-imidazol-2-yl)-1H-indazol-6-yl)phenyl)-2-methylpyridine-3-sulfonamide], the figure is < 500 nM.
For the molecule `COc1ncc(Cl)cc1S(=O)(=O)Nc1cc(F)cc(-c2ccc3c(-c4ncc[nH]4)n[nH]c3c2F)c1F` [Example 3C, 5-chloro-N-(2,5-difluoro-3-(7-fluoro-3-(1H-imidazol-2-yl)-1H-indazol-6-yl)phenyl)-2-methoxypyridine-3-sulfonamide], the concentration for half-maximal inhibition (IC50) (Table 9) is < 500 nM.
